Results on three compounds are retold here after patent US4246413A, “6-Oxamorphinans” (priority 1979, dated 1981).

Assay [1] is classed as in vivo.
Assay [2] can be described thus: oxymorphone-induced Straub tail test for antagonist activity. It is filed as in vivo.

In the case of `COc1ccc2c(c1)[C@]13CCN(C)[C@H](C2)[C@@H]1CC(C)(C)OC3.Cl` (racemic) [BL-6028, 3-Methoxy-7,7,17-trimethyl-6-oxamorphinan Hydrochloride], the “Agonist Activity ED50, Mice (SC)” value in assay [1] was found to be 0.053 mg/kg.

In the case of `CN1CC[C@]23COC(C)(C)C[C@H]2[C@H]1Cc1ccc(O)cc13` (racemic) [BL-6092, 3-Hydroxy-7,7,17-trimethyl-6-oxamorphinan], the “Agonist Activity ED50, Mice (SC)” value in assay [1] is 0.038 mg/kg.

As to `CC1(C)C[C@H]2[C@H]3Cc4ccc(O)cc4[C@@]2(CCN3CC2CC2)CO1.Cl` (racemic) [BL-6097, 17-Cyclopropylmethyl-7,7-dimethyl-3-hydroxy-6-oxamorphinan Hydrochloride], the median effective dose (ED50) in assay [2] (sc, read-out: subcutaneous ED50, antagonist activity) worked out at 0.8 mg/kg. In addition, the “times the antagonist activity of butorphanol” value in assay [2] (subcutaneous, relative to butorphanol) was “about 1.2 times”. Also, the “Agonist Activity ED50, Mice (PO)” value in assay [1] (PO) came to 0.35 mg/kg. For the same compound, the “Agonist Activity ED50, Mice (SC)” value in assay [1] is on record as 0.083 mg/kg. Besides, the “times as potent as morphine sulfate, orally” value in assay [1] (mice, oral, relative to morphine sulfate) is “about 8.9 times”.
